Laboratory results published in patent US10934274B2, “Quinoline derivatives as TAM RTK inhibitors” (Qurient Co., Ltd., priority 2015, dated 2021).

How the values were obtained:
TYRO3 = target: T1, TYRO3 (Homo sapiens, UniProt Q06418); assay: LanthaScreen Eu kinase binding assay, TYRO3; conditions: Tracer 236
T1 construct: purchased Life Technologies
T1 sequence (Q06418 41-890): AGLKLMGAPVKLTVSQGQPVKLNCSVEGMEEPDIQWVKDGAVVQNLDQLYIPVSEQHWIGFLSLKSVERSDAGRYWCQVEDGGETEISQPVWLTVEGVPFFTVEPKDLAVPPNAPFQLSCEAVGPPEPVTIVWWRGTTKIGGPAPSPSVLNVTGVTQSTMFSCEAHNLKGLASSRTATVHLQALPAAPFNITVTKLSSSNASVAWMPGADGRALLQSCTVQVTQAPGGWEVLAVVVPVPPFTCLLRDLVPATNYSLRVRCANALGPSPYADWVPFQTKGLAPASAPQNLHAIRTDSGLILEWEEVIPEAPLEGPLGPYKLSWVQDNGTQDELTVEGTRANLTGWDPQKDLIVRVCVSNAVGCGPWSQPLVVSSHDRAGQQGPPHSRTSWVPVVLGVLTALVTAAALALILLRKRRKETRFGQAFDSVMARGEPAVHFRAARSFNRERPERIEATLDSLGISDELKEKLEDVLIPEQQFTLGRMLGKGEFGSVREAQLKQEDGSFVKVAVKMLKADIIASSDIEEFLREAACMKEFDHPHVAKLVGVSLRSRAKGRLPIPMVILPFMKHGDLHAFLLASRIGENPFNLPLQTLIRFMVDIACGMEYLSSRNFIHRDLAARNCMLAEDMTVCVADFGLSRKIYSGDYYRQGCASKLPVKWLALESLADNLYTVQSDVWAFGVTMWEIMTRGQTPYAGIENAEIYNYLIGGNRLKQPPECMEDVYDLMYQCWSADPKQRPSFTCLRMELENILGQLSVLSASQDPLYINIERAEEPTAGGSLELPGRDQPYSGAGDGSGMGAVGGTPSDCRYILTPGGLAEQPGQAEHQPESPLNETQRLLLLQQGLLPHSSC

Mer = target: T2, Mer (Homo sapiens, UniProt Q12866); assay: LanthaScreen Eu kinase binding assay, Mer; conditions: Tracer 236
T2 construct: purchased Life Technologies
T2 sequence (Q12866 21-999): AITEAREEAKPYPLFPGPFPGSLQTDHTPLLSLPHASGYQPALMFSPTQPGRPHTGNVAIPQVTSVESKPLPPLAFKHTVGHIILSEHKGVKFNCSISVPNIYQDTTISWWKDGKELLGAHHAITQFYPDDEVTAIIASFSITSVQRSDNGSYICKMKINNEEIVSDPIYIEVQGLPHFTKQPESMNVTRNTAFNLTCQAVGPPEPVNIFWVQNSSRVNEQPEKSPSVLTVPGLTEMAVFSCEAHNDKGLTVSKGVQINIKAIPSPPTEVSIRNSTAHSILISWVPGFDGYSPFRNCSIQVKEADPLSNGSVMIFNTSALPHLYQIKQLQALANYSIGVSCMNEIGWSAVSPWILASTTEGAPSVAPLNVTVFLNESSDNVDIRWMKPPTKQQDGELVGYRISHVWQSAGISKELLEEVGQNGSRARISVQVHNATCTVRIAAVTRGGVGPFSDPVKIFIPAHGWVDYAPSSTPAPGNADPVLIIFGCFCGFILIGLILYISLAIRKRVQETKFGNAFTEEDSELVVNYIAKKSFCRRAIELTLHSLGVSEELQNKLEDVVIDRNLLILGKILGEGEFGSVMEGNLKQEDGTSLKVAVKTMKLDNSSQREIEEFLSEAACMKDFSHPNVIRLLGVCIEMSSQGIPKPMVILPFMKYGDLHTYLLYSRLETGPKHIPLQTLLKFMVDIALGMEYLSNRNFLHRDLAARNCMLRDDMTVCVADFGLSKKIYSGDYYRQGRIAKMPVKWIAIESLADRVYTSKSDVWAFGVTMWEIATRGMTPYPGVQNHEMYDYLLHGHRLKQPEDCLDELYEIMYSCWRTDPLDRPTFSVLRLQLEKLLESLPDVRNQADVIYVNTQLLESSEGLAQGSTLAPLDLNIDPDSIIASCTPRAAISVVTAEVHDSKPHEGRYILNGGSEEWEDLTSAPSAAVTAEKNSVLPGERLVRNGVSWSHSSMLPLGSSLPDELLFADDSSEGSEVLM

Axl = target: T3, Axl (Homo sapiens, UniProt P30530); assay: LanthaScreen Eu kinase binding assay, Axl; conditions: Tracer 236
T3 construct: purchased Life Technologies
T3 sequence (P30530 26-894): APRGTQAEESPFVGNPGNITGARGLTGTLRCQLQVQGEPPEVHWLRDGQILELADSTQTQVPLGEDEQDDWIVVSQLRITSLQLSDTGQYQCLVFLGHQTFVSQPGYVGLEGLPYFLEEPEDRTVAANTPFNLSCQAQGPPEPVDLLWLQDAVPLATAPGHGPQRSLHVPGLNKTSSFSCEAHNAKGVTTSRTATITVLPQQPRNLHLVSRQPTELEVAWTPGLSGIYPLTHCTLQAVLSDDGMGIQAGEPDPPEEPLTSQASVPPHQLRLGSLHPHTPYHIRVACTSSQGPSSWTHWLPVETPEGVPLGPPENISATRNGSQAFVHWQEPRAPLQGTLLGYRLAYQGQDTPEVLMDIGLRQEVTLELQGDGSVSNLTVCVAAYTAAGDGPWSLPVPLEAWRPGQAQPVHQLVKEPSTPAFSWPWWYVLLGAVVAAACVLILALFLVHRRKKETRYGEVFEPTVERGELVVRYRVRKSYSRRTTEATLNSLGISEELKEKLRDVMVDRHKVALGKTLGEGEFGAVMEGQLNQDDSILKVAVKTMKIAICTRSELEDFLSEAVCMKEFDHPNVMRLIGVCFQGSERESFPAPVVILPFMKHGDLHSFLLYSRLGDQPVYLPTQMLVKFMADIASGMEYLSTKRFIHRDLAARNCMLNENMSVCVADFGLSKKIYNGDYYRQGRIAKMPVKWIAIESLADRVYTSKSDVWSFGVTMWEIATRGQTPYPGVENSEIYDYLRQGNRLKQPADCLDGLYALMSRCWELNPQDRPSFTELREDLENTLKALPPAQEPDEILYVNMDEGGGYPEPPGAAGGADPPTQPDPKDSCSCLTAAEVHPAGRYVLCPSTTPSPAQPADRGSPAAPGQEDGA

Met = target: T4, Met (Homo sapiens, UniProt P08581); assay: LanthaScreen Eu kinase binding assay, Met; conditions: Tracer 236, read-out: cMet kinase binding activity (Kd)
T4 construct: purchased Life Technologies
T4 sequence (P08581 25-1390): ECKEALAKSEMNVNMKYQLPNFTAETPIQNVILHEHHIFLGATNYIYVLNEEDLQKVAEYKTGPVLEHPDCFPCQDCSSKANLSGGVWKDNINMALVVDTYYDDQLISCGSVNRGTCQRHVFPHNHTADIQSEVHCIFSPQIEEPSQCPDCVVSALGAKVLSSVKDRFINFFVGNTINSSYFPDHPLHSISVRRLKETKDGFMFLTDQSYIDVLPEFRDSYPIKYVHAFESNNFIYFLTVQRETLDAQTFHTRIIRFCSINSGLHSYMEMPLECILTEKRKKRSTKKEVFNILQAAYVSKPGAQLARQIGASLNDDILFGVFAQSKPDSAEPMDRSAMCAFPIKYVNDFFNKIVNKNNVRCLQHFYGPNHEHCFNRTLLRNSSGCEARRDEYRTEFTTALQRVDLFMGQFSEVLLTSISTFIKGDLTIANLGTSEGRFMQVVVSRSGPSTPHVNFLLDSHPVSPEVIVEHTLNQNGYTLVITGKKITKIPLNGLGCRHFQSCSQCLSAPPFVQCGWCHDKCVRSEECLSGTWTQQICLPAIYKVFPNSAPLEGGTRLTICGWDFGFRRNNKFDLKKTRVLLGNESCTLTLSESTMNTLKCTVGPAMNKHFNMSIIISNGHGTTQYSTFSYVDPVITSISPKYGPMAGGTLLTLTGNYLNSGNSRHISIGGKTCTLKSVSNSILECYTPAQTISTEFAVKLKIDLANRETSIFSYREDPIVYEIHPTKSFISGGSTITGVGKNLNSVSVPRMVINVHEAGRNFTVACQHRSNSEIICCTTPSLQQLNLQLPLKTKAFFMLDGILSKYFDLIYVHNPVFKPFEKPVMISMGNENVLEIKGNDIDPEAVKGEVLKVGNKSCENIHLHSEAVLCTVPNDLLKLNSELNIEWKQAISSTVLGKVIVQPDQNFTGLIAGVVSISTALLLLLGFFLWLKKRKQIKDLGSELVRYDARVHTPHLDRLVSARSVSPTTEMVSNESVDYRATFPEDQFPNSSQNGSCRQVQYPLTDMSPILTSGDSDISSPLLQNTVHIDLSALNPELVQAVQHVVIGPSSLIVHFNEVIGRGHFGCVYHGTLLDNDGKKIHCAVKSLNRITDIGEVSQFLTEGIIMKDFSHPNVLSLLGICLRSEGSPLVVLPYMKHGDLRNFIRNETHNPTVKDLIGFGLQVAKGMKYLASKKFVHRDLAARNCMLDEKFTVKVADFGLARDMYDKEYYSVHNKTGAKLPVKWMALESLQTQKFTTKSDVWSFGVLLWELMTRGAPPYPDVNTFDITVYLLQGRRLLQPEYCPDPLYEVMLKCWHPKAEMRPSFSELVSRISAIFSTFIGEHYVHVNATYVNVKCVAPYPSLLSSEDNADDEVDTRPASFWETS

SMILES | Kd (TYRO3) [nM] | Kd (Mer) [nM] | Kd (Axl) [nM] | Kd (Met) [nM]
CCOc1cn(-c2cnccc2C(=O)OC)nc1C(=O)Nc1ccc(Oc2ccnc3cc(OC)c(OC)cc23)cn1 [Compound 172] | < 100 | < 100 | < 100 | < 100
CCOc1cn(-c2cnccc2OC)nc1C(=O)Nc1ccc(Oc2ccnc3cc(OC)c(OC)cc23)cn1 [Compound 173] | < 100 | < 100 | < 100 | < 100
CCOc1cn(-c2cncnc2OC)nc1C(=O)Nc1ccc(Oc2ccnc3cc(OC)c(OC)cc23)cn1 [Compound 175] | < 100 | < 100 | < 100 | < 100
CCOc1cn(-c2cnccc2CC(=O)OC)nc1C(=O)Nc1ccc(Oc2ccnc3cc(OC)c(OC)cc23)cn1 [Compound 176] | 100 to 1000 | < 100 | < 100 | < 100
CCOc1cn(-c2nccnc2F)nc1C(=O)Nc1ccc(Oc2ccnc3cc(OC)c(OC)cc23)cn1 [Compound 178] | < 100 | < 100 | < 100 | < 100
CCOc1cn(-c2cncnc2N2CCCC2)nc1C(=O)Nc1ccc(Oc2ccnc3cc(OC)c(OC)cc23)cn1 [Compound 180] | ≥ 1000 | 100 to 1000 | 100 to 1000 | ≥ 1000
CCOc1cn(-c2cnccn2)nc1C(=O)NC1CC(Oc2ccnc3cc(OC)c(OC)cc23)C1 (stereo not drawn) [Compound 204] | ≥ 1000 | 100 to 1000 | ≥ 1000 | 100 to 1000
CCOc1cn(CC2CCCN(C)C2)nc1C(=O)Nc1ccc(Oc2ccnc3cc(OC)c(OC)cc23)cc1F (stereo not drawn) [Compound 214] | 100 to 1000 | 100 to 1000 | 100 to 1000 | 100 to 1000
CCOc1cnn(CC2CCCN(C)C2)c1C(=O)Nc1ccc(Oc2ccnc3cc(OC)c(OC)cc23)cc1F (stereo not drawn) [Compound 216] | ≥ 1000 | 100 to 1000 | 100 to 1000 | 100 to 1000
CCOc1cnn(Cc2cnccn2)c1C(=O)Nc1ccc(Oc2ccnc3cc(OC)c(OC)cc23)cc1F [Compound 217] | ≥ 1000 | 100 to 1000 | ≥ 1000 | 100 to 1000
CCOc1cn(CC2CCNCC2)nc1C(=O)Nc1ccc(Oc2ccnc3cc(OC)c(OC)cc23)cc1F [Compound 218] | 100 to 1000 | 100 to 1000 | 100 to 1000 | 100 to 1000
CCOc1cn(CC2CCN(C)CC2)nc1C(=O)Nc1ccc(Oc2ccnc3cc(OC)c(OC)cc23)cc1F [Compound 219] | 100 to 1000 | 100 to 1000 | 100 to 1000 | 100 to 1000
CCOc1cnn(CC2CCN(C)CC2)c1C(=O)Nc1ccc(Oc2ccnc3cc(OC)c(OC)cc23)cc1F [Compound 220] | ≥ 1000 | ≥ 1000 | ≥ 1000 | ≥ 1000
CCOc1cn(-c2cnccc2C)nc1C(=O)NC1CC2(C1)CC(Oc1ccnc3cc(OC)c(OC)cc13)C2 (stereo not drawn) [Compound 221] | ≥ 1000 | ≥ 1000 | ≥ 1000 | ≥ 1000
CCOc1cn(C2CCN(C)CC2)nc1C(=O)Nc1ccc(Oc2ccnc3cc(OC)c(OC)cc23)cc1F [Compound 222] | ≥ 1000 | 100 to 1000 | 100 to 1000 | ≥ 1000
CCOc1cnn(C2CCN(C)CC2)c1C(=O)Nc1ccc(Oc2ccnc3cc(OC)c(OC)cc23)cc1F [Compound 223] | ≥ 1000 | 100 to 1000 | ≥ 1000 | ≥ 1000
CCOc1cnn(Cc2cnccc2C)c1C(=O)Nc1ccc(Oc2ccnc3cc(OC)c(OC)cc23)cc1F [Compound 228] | ≥ 1000 | 100 to 1000 | ≥ 1000 | 100 to 1000
CCOc1cnn(-c2cnc(N)nc2)c1C(=O)Nc1ccc(Oc2ccnc3cc(OC(C)C)c(OC)cc23)cc1F [Compound 232] | ≥ 1000 | 100 to 1000 | 100 to 1000 | ≥ 1000
CCC(C)Oc1cc2nccc(Oc3ccc(NC(=O)c4nn(-c5cnc(N)nc5)cc4OCC(F)(F)F)nc3)c2cc1OC (stereo not drawn) [Compound 235] | < 100 | < 100 | < 100 | 100 to 1000
CCC(C)Oc1cc2nccc(Oc3ccc(NC(=O)c4c(OCC(F)(F)F)cnn4-c4cnc(N)nc4)nc3)c2cc1OC (stereo not drawn) [Compound 238] | ≥ 1000 | 100 to 1000 | ≥ 1000 | ≥ 1000
COCCOc1cnn(-c2cnc(N)nc2)c1C(=O)Nc1ccc(Oc2ccnc3cc(OC)c(OC)cc23)cn1 [Compound 245] | ≥ 1000 | 100 to 1000 | ≥ 1000 | ≥ 1000
COc1cc2c(Oc3ccc(NC(=O)c4c(OCC(F)(F)F)cnn4-c4cnc(N)nc4)nc3)ccnc2cc1OC(C)C [Compound 256] | ≥ 1000 | 100 to 1000 | 100 to 1000 | ≥ 1000
COc1cc2nccc(Oc3ccc(NC(=O)c4nn(-c5ccc(F)cc5-c5ccccc5)cc4OCC4CC4)nc3)c2cc1OC [Compound 275] | 100 to 1000 | 100 to 1000 | 100 to 1000 | 100 to 1000
COc1cc2nccc(Oc3ccc(NC(=O)c4nn(-c5ccc(F)cc5C)cc4OCCN(C)C)cc3F)c2cc1OC [Compound 276] | 100 to 1000 | < 100 | < 100 | < 100
CCOc1nn(-c2ccc(F)cc2C)cc1C(=O)Nc1ccc(Oc2ccnc3cc(OC)c(OC)cc23)c(F)c1 [Compound 277] | < 100 | 100 to 1000 | ≥ 1000 | ≥ 1000
COc1cc2nccc(Oc3ccc(NC(=O)c4nn(-c5ccc(F)c(Cl)c5)cc4OCC(F)(F)F)nc3)c2cc1OC [Compound 278] | 100 to 1000 | < 100 | < 100 | 100 to 1000
COc1cc2nccc(Oc3ccc(NC(=O)c4nn(-c5cc(F)ccc5Cl)cc4OCC(F)(F)F)nc3)c2cc1OC [Compound 279] | < 100 | < 100 | < 100 | < 100
